According to patent publication US20020045191A1, “Inhibition of the SRC kinase family pathway as a method of treating HBV infection and hepatocellular carcinoma” (priority 2000, published 2002):

How the values were obtained:
HBV [1] = test: HBV mRNA levels, Northern blot, HepG2 cells; format: cell-based, hepatitis B virus; conditions: for cytoplasmic levels of HBV pgRNA and HBsAg mRNAs: HepG2 cells, 4 d, valinomycin 1 nM, thapsigargin 20 nM
Description: (§1) TPA treatment was for […] using 20 ng/ml. […] (C) Chang cells transfected with vector or pAdCMVX were treated 2h with 0.5 mM or 3 mM EGTA, and Pyk2 examined by immunoblot. (D) HepG2 cells were transfected with HBV, HBx(−) HBV genomic DNA or vector, complemented by 2 μg plasmid pAdCMVX. Cytoplasmic HBV core particles were isolated from equal numbers of cells (Klein, et al. 1997, EMBOJ 18: 5019-5027) and viral DNA replication intermediates detected by Southern blot as described (Klein, et al. 1997, EMBOJ 18: 5019-5027). The smear represents 4 kb (mature double-stranded DNA) to 2 kb (first-strand single-stranded DNA). Northern blot analysis was carried out using poly(A+) RNA extracted from equal numbers of cells. (E) Southern and Northern blot analyses were performed on HepG2 cells transfected as above with or without pPKM or PPRKS. Typical experiments are shown.
FIG. 10. […] Products were resolved by electrophoresis and detected by autoradiography. Typical results are shown.
(§2) FIG. 11. (A) HepG2 cells were with HBV or HBx(−) HBV genomic DNA. At 24 h post-transfection cells were treated with 1 nM valinomycin (val.) or 20 nM thapsigargin (thap.) for 4 d, cytoplasmic core particles were isolated from equal numbers of cells and viral replication examined by Southern blot hybridization. HBV transcription was analyzed by Northern blot hybridization. (B) Nontransfected HepG2 cells 5were treated with valinomycin or thapsigargin as above, and the abundance of Pyk2 or activated Pyk2 Y-402 phosphorylation determined by immunoblot
The requirement for cytosolic calcium and HBx activation of Pyk2 in HBV replication was examined. […]
Studies next determined whether HBx activity can be replaced by ionophoric agents that increase cytosolic calcium. […]

HBV [2] = test: HBV DNA replication in cytoplasmic core particles, Southern blot, HepG2 cells; format: cell-based, hepatitis B virus; conditions: for increase of reverse transcription and DNA replication of (HBx−)HBV: HepG2 cells, 4 d, valinomycin 1 nM, thapsigargin 20 nM
Description: Cytoplasmic viral core particles were isolated and HBV DNA replication and mRNA levels detected by Southern and Northern blot hybridization.
The requirement for cytosolic calcium and HBx activation of Pyk2 in HBV replication was examined. […] HepG2 cells were transfected with vector alone, wild type HBV genomic DNA, or HBx(−) genomic DNA, cytoplasmic viral core particles, the structures in which viral DNA replication takes place, were isolated and the level of viral DNA replication was examined (FIG. 9D).
The requirement for cytosolic calcium in HBx-dependent viral replication was investigated.

Pyk2 [3] = test: Pyk2 Y-402 phosphorylation immunoblot, Chang cells; format: cell-based, human; conditions: for HBx activation of Pyk2: 0.5 mM EGTA 2 h, 50 μM BAPTA-AM 2 h, 3 μM CsA 4 h
Description: FIG. 9. Chang cells or HepG2 cells were transfected with expression vectors pAdCMVX (HBx), pAdCMVXo (HBx−), pPKM, or empty vectors pAdCMV or pPRK5. (A) Chang cells were treated with 50 μM BAPTA-AM for 2 h, equal protein amounts resolved by gel-electrophoresis and immunoblotted with antibodies to Pyk2 or activated Y-402 phosphorylated Pyk2.
as §1
Studies determined whether HBx acts on intracellular calcium to activate Pyk2. […] HBx activation of Pyk2 therefore involves cytosolic calcium action. Studies next determined whether HBx acts on calcium channels in the endoplasmic reticulum (ER), mitochondria or plasma membrane (PM) for its activity.

Pyk2 [4] = test: Pyk2 activity (Y-402 phosphorylation immunoblot) in nontransfected HepG2 cells; format: cell-based, human; conditions: valinomycin 1 nM, thapsigargin 20 nM
Description: as §2
Studies next determined whether HBx activity can be replaced by ionophoric agents that increase cytosolic calcium. Cells were transfected with plasmids expressing wild type HBV or HBx(−) genomes and treated for 4 d with low, nontoxic levels of calcium mobilizing agents valinomycin (1 nM) or thapsigargin (20 nM). Reverse transcription and DNA replication of (HBx−)HBV were increased 20 fold by valinomycin to wild type (HBx+) levels, and 10 fold by thapsigargin (FIG. 11A).

c-Src = c-Src immunoprecipitation and in vitro kinase assay (auto-phosphorylation, enolase trans-phosphorylation), NIH 3T3 cells; format: cell-based; conditions: serum-starved NIH 3T3 cells, PDGF (100 ng/ml) for 5 minutes
Description: FIG. 1. Serum-starved NIH 3T3 cells were infected with AdCMV-X or -Xo viruses, c-Src or c-Fyn was immunoprecipitated, the pellet washed and assayed by incubation with the substrate enolase and [γ-^32P] ATP. Products were resolved by SDS-10%-PAGE then visualized and quantitiated by PhosphorImage analysis.
c-Src (FIG. 1A) or c-Fyn (FIG. 1B) were immunoprecipitated 8 h p.i. from NIH 3T3 cell lysates expressing HBx or HBxo. Where indicated, cells were incubated with PDGF (100 ng/ml) for 5 min.
Src kinase assays were carried out essentially as described (Kypta et al., 1990, Cell 62:481-492). Briefly, NIH 3T3 or Chang cells were lysed in buffer containing 1% NP-40, 150 mM NaCl, 20 mM Tris HCl pH 8, 2.5 mM EDTA, 1 mM Na3VO4, 50 mM NaF, 1 mM PMSF, 10 μg/ml aprotinin, and 10 μg/ml leupeptin. Src and Fyn kinase activity were measured by immunoprecipitating either Src (1 μg anti-Src antibodies) or Fyn (1 μg/ml anti-Fyn antibodies) from equal amounts of cell lysate. […] For the reactions containing the Src peptide substrate, TCA was added to a final concentration of 20%, an aliquot was spotted onto phosphocellulose paper (UBI), the filters were washed 3×5 minutes in 0.75% phosphoric acid and once in acetone, dried and analyzed by scintillation counting. […]

[5] = Chang cells, high concentration of EGTA (3 mM)

Compound | HBx activation of Pyk2 (Pyk2 [3]; Chang cells) | cytoplasmic levels of HBV pgRNA and HBsAg mRNAs (HBV [1]) | stimulation of Pyk2 activity (Pyk2 [4]) [fold] | increase of reverse transcription and DNA replication of (HBx−)HBV (HBV [2]) [fold] | also measured
CC(=O)OCOC(=O)CN(CC(=O)OCOC(C)=O)c1ccccc1OCCOc1ccccc1N(CC(=O)OCOC(C)=O)CC(=O)OCOC(C)=O [BAPTA-AM] | prevented | – | – | – | HBV mRNA levels (HBV [1]; HBV genome transfected HepG2 cells, low levels of BAPTA-AM for 4 d): without strongly reducing; impairment of HBV viral DNA replication (HBV [2]; HBV genome transfected HepG2 cells, low levels of BAPTA-AM (2.5 μM or 25 μM) for 4 d): 10 fold; HBx-induced Pyk2 phosphorylation at Y-402 (Pyk2 [3]; HBx transfected Chang cells, 50 μM (2 times IC50) for 2 h): prevented; Pyk2 levels (Pyk2 [3]; HBx transfected Chang cells, 50 μM for 2 h): without altering
O=C(O)CN(CCOCCOCCN(CC(=O)O)CC(=O)O)CC(=O)O [EGTA] | no effect | – | – | – | TPA activation of Pyk2 phosphorylation (Pyk2 [3]; [5]): did not block; activation of Pyk2 by HBx (Pyk2 [3]; [5]): partially inhibited
C/C=C(/C)C(=O)O[C@H]1C(C)=C2[C@H]([C@@H]1OC(=O)CCCCCCC)[C@@](C)(OC(C)=O)C[C@H](OC(=O)CCC)[C@@]1(O)[C@H]2OC(=O)[C@@]1(C)O [thapsigargin] | – | Neither agent increased | 3 | 10 | –
CC(C)[C@@H]1NC(=O)[C@H](C)OC(=O)[C@@H](C(C)C)NC(=O)[C@@H](C(C)C)OC(=O)[C@H](C(C)C)NC(=O)[C@H](C)OC(=O)[C@@H](C(C)C)NC(=O)[C@@H](C(C)C)OC(=O)[C@H](C(C)C)NC(=O)[C@H](C)OC(=O)[C@@H](C(C)C)NC(=O)[C@@H](C(C)C)OC1=O [valinomycin] | – | Neither agent increased | 5 | 20 | –
PDGF | – | – | – | – | activation of c-Src (auto- and trans-phosphorylation) (c-Src): 3-4 fold
